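Tested at 5 concentrations; 48 h exposure; 96-well plates; endpoints linearly interpolated, else capped at highest concentration. Here, GI50 denotes the concentration required for 50% inhibition of growth.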 Activity calls are given as the source filed them. Rule as the data show it: active = GI50 up to about 1.1 µM and inactive = higher.
Key:
Assay in all cases: inhibition of tumour cell growth, NCI panel, 48 h
SR = tested on: SR
M14 = tested on: M14
HOP-92 = tested on: HOP-92
CAKI-1 = tested on: CAKI-1
NCI-H23 = tested on: NCI-H23
MCF7 = tested on: MCF7
HCT-15 = tested on: HCT-15
K562 = tested on: K562
U-251 = tested on: U-251
MDA-N = tested on: MDA-N
COLO 205 = tested on: COLO 205
SW-620 = tested on: SW-620
TK-10 = tested on: TK-10
EKVX = tested on: EKVX
HCC 2998 = tested on: HCC 2998
KM12 = tested on: KM12
OVCAR-3 = tested on: OVCAR-3
BT-549 = tested on: BT-549
SF-539 = tested on: SF-539

Row | Structure (SMILES) | GI50 (SR) | GI50 (M14) | GI50 (HOP-92) | GI50 (CAKI-1) | GI50 (NCI-H23) | GI50 (MCF7) | GI50 (HCT-15) [µM] | GI50 (K562) | GI50 (U-251) | GI50 (MDA-N) | GI50 (COLO 205) | GI50 (SW-620) | GI50 (TK-10) | GI50 (EKVX) | GI50 (HCC 2998) | GI50 (KM12) | GI50 (OVCAR-3) | GI50 (BT-549) | GI50 (SF-539)
1 | CCC(=O)C1(c2ccccc2)CCN(C)CC1 | > 100 µM (inactive) | > 100 µM (inactive) | > 100 µM (inactive) | > 100 µM (inactive) | > 100 µM (inactive) | > 100 µM (inactive) | > 100 | > 100 µM (inactive) | > 100 µM (inactive) | > 100 µM (inactive) | > 100 µM (inactive) | > 100 µM (inactive) | > 100 µM (inactive) | > 100 µM (inactive) | > 100 µM (inactive) | > 100 µM (inactive) | – | – | –
2 | NC1CC(=O)c2sccc21 (stereo not given) | > 100 µM (inactive) | > 100 µM (inactive) | > 100 µM (inactive) | > 100 µM (inactive) | > 100 µM (inactive) | > 100 µM (inactive) | > 100 | > 100 µM (inactive) | > 100 µM (inactive) | – | > 100 µM (inactive) | > 100 µM (inactive) | > 100 µM (inactive) | > 100 µM (inactive) | > 100 µM (inactive) | > 100 µM (inactive) | > 100 µM (inactive) | > 100 µM (inactive) | > 100 µM (inactive)
3 | CN(C)C(=O)C(F)(F)C(c1ccccc1)C1C(=O)N(C)C(=O)N(C)C1=O (stereo not given) | – | > 100 µM (inactive) | > 100 µM (inactive) | > 100 µM (inactive) | > 100 µM (inactive) | > 100 µM (inactive) | > 100 | > 100 µM (inactive) | > 100 µM (inactive) | – | > 100 µM (inactive) | > 100 µM (inactive) | > 100 µM (inactive) | > 100 µM (inactive) | > 100 µM (inactive) | > 100 µM (inactive) | > 100 µM (inactive) | > 100 µM (inactive) | –
4 | CC(C)NCC(O)c1ccc(OCc2ccccc2)c(OCc2ccccc2)c1-c1ccccc1 (stereo not given) | 2.68 µM (inactive) | 1.93 µM (inactive) | 2.62 µM (inactive) | 1.76 µM (inactive) | 1.97 µM (inactive) | 1.79 µM (inactive) | 1.82 | 1.63 µM (inactive) | 1.67 µM (inactive) | 1.69 µM (inactive) | 1.7 µM (inactive) | 1.63 µM (inactive) | 2.35 µM (inactive) | 14.3 µM (inactive) | 1.69 µM (inactive) | 2.16 µM (inactive) | 1.8 µM (inactive) | – | 1.58 µM (inactive)
5 | CCOC(=O)/C1=C(\C)N(Cc2ccccc2)C(=O)c2ccccc2C(=O)c2c(OC(C)=O)ccc(OC(C)=O)c21 | 20.5 µM (inactive) | – | 12.7 µM (inactive) | 72.3 µM (inactive) | – | 21.1 µM (inactive) | 69.3 | 42.9 µM (inactive) | > 100 µM (inactive) | 36 µM (inactive) | 78.7 µM (inactive) | 65.3 µM (inactive) | 58.3 µM (inactive) | 18.3 µM (inactive) | 7.6 µM (inactive) | 47 µM (inactive) | 23.1 µM (inactive) | – | > 100 µM (inactive)
6 | CN1C(=O)C2(C=CC(O)CC2)c2ccccc21 (stereo not given) | > 100 µM (inactive) | > 100 µM (inactive) | > 100 µM (inactive) | > 100 µM (inactive) | > 100 µM (inactive) | > 100 µM (inactive) | > 100 | > 100 µM (inactive) | > 100 µM (inactive) | > 100 µM (inactive) | > 100 µM (inactive) | > 100 µM (inactive) | > 100 µM (inactive) | > 100 µM (inactive) | > 100 µM (inactive) | > 100 µM (inactive) | > 100 µM (inactive) | – | –
7 | Cc1cc2c(cc1Cl)SC(NNC(=O)c1ccccc1)=NS2(=O)=O | – | > 10 µM (inactive) | – | > 10 µM (inactive) | > 10 µM (inactive) | 2.21 µM (inactive) | > 10 | > 10 µM (inactive) | > 10 µM (inactive) | – | > 10 µM (inactive) | > 10 µM (inactive) | > 10 µM (inactive) | > 10 µM (inactive) | > 10 µM (inactive) | > 10 µM (inactive) | > 10 µM (inactive) | > 10 µM (inactive) | > 10 µM (inactive)
8 | CCc1cc2c(c3c1CCCC3=O)CC1(C2)Cc2cc(CC)c3c(c2C1)C(=O)CCC3 | 24.1 µM (inactive) | > 100 µM (inactive) | 57.9 µM (inactive) | 89.5 µM (inactive) | > 100 µM (inactive) | > 100 µM (inactive) | > 100 | 65.9 µM (inactive) | 87.5 µM (inactive) | > 100 µM (inactive) | > 100 µM (inactive) | > 100 µM (inactive) | > 100 µM (inactive) | > 100 µM (inactive) | > 100 µM (inactive) | 47.2 µM (inactive) | 86.3 µM (inactive) | – | > 100 µM (inactive)
9 | CC12CP(=O)(O)CC1C2(Cl)Cl (stereo not given) | > 100 µM (inactive) | > 100 µM (inactive) | > 100 µM (inactive) | > 100 µM (inactive) | > 100 µM (inactive) | > 100 µM (inactive) | > 100 | > 100 µM (inactive) | > 100 µM (inactive) | – | > 100 µM (inactive) | > 100 µM (inactive) | > 100 µM (inactive) | > 100 µM (inactive) | > 100 µM (inactive) | > 100 µM (inactive) | > 100 µM (inactive) | > 100 µM (inactive) | > 100 µM (inactive)
10 | O=C(CCC(C(=O)OCc1ccccc1)C(=O)OCc1ccccc1)Nc1ccc(OCc2ccccc2)cc1 | 99.1 µM (inactive) | > 100 µM (inactive) | > 100 µM (inactive) | > 100 µM (inactive) | 40.3 µM (inactive) | 13.2 µM (inactive) | 14 | > 100 µM (inactive) | 38.3 µM (inactive) | 49.8 µM (inactive) | 41 µM (inactive) | > 100 µM (inactive) | 63.4 µM (inactive) | > 100 µM (inactive) | > 100 µM (inactive) | > 100 µM (inactive) | > 100 µM (inactive) | – | > 100 µM (inactive)
11 | Oc1ccc(C(O)(c2ccccc2)c2ccccc2)c2ccccc12 | 2.5 µM (inactive) | 2.34 µM (inactive) | < 0.01 µM (active) | 1.82 µM (inactive) | 2.79 µM (inactive) | 4.15 µM (inactive) | 1.22 | 3.13 µM (inactive) | 1.45 µM (inactive) | – | 3.44 µM (inactive) | 2.64 µM (inactive) | 2.59 µM (inactive) | 10.4 µM (inactive) | – | 2.07 µM (inactive) | 1.42 µM (inactive) | 3.85 µM (inactive) | 2 µM (inactive)
12 | C(#C[C@@]12CCC[C@@H]1NCO2)c1ccc2c(c1)OCO2 | 36.8 µM (inactive) | 24.7 µM (inactive) | 35 µM (inactive) | 67.1 µM (inactive) | > 100 µM (inactive) | 57.9 µM (inactive) | 54.8 | 21.9 µM (inactive) | 70.5 µM (inactive) | 61.5 µM (inactive) | 16.9 µM (inactive) | 81.3 µM (inactive) | 73.3 µM (inactive) | > 100 µM (inactive) | 17.6 µM (inactive) | 69.7 µM (inactive) | 65.6 µM (inactive) | – | 29.3 µM (inactive)
13 | CCCCCCCCCCCCCCCCCCOCC(CO[PH](=O)O)OCCCCCCCCCCCCCCCCCC (stereo not given) | > 50 µM (inactive) | > 50 µM (inactive) | > 50 µM (inactive) | > 50 µM (inactive) | – | > 50 µM (inactive) | > 50 | > 50 µM (inactive) | > 50 µM (inactive) | > 50 µM (inactive) | > 50 µM (inactive) | > 50 µM (inactive) | > 50 µM (inactive) | > 50 µM (inactive) | > 50 µM (inactive) | > 50 µM (inactive) | > 50 µM (inactive) | – | > 50 µM (inactive)
14 | COC(=O)c1cccc(C)c1C1CN=NC12Cc1cc(C)cc(C)c1C2=O (stereo not given) | 39 µM (inactive) | 34.8 µM (inactive) | 47.8 µM (inactive) | 78.2 µM (inactive) | 41.4 µM (inactive) | 40.4 µM (inactive) | 51.1 | 26.4 µM (inactive) | 54.7 µM (inactive) | 26.7 µM (inactive) | – | 29.7 µM (inactive) | > 100 µM (inactive) | 26.3 µM (inactive) | 26.5 µM (inactive) | 34.4 µM (inactive) | 47.1 µM (inactive) | – | 56.4 µM (inactive)
15 | C=CCN(C(=O)CNC(=O)C(F)(F)F)c1cc(OCc2ccccc2)c2c(c1)c(C)cn2S(=O)(=O)c1ccccc1 | – | > 100 µM (inactive) | 4.92 µM (inactive) | > 31 µM (inactive) | > 87.7 µM (inactive) | 7.57 µM (inactive) | > 100 | > 23.9 µM (inactive) | > 67.9 µM (inactive) | – | 8.02 µM (inactive) | – | > 100 µM (inactive) | 7.71 µM (inactive) | > 100 µM (inactive) | 17.6 µM (inactive) | > 49.5 µM (inactive) | > 100 µM (inactive) | > 100 µM (inactive)
16 | SC1=NNC2(C(S)=N1)c1ccccc1-c1ccccc12 | > 10 µM (inactive) | > 10 µM (inactive) | > 10 µM (inactive) | > 10 µM (inactive) | > 10 µM (inactive) | 5.37 µM (inactive) | > 10 | > 10 µM (inactive) | > 10 µM (inactive) | – | > 10 µM (inactive) | > 10 µM (inactive) | > 10 µM (inactive) | > 10 µM (inactive) | > 10 µM (inactive) | > 10 µM (inactive) | – | > 10 µM (inactive) | > 10 µM (inactive)
17 | COc1cc(O)c(C(C)=O)c(O)c1 | 36.3 µM (inactive) | 86.9 µM (inactive) | 25 µM (inactive) | – | 30.8 µM (inactive) | 37.5 µM (inactive) | 76.7 | 18.7 µM (inactive) | 63.8 µM (inactive) | > 100 µM (inactive) | > 100 µM (inactive) | > 100 µM (inactive) | > 100 µM (inactive) | 37.4 µM (inactive) | > 100 µM (inactive) | > 100 µM (inactive) | > 100 µM (inactive) | – | > 100 µM (inactive)

Reference: ChEMBL document CHEMBL1201862, “PubChem BioAssay data set” (2004)
